Measurements reported in patent US20240208992A1, “MACROCYCLES AS CFTR MODULATORS” (Idorsia Pharmaceuticals Ltd, priority 2021, published 2024).

Target: human F508del-CFTR (Homo sapiens, UniProt P13569, DEL508-508)
Test: F508del-CFTR cell surface expression (corrector activity), DiscoveRx ß-galactosidase complementation chemiluminescence assay in recombinant U2OS cell line;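 note: U2OS cells co-expressing ProLink-tagged F508del-CFTR and a membrane-anchored enzyme acceptor, where more surface CFTR restores β-galactosidase activity measured by chemiluminescence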
Details: for Emax: U2OS
[1] = EC50, F508del-CFTR cell surface expression, U2OS cell line, 16h compound incubation, geomean values
[2] = in relation to the Emax of the corrector lumacaftor (=100%), U2OS cell line, 16h compound incubation, arithmetic mean values
[3] = EC50, F508del-CFTR cell surface expression, U2OS cells, 16h compound incubation, geomean values
[4] = in relation to Emax of corrector lumacaftor (=100%), arithmetic mean values
[5] = EC50, F508del-CFTR cell surface expression, U2OS cells, 16h compound incubation, geomean of several measurements
[6] = in relation to the Emax of the corrector lumacaftor (=100%), U2OS cells, 16h compound incubation, arithmetic mean

Sequence of human F508del-CFTR (P13569 with tags, fused parts or gaps DEL508-508): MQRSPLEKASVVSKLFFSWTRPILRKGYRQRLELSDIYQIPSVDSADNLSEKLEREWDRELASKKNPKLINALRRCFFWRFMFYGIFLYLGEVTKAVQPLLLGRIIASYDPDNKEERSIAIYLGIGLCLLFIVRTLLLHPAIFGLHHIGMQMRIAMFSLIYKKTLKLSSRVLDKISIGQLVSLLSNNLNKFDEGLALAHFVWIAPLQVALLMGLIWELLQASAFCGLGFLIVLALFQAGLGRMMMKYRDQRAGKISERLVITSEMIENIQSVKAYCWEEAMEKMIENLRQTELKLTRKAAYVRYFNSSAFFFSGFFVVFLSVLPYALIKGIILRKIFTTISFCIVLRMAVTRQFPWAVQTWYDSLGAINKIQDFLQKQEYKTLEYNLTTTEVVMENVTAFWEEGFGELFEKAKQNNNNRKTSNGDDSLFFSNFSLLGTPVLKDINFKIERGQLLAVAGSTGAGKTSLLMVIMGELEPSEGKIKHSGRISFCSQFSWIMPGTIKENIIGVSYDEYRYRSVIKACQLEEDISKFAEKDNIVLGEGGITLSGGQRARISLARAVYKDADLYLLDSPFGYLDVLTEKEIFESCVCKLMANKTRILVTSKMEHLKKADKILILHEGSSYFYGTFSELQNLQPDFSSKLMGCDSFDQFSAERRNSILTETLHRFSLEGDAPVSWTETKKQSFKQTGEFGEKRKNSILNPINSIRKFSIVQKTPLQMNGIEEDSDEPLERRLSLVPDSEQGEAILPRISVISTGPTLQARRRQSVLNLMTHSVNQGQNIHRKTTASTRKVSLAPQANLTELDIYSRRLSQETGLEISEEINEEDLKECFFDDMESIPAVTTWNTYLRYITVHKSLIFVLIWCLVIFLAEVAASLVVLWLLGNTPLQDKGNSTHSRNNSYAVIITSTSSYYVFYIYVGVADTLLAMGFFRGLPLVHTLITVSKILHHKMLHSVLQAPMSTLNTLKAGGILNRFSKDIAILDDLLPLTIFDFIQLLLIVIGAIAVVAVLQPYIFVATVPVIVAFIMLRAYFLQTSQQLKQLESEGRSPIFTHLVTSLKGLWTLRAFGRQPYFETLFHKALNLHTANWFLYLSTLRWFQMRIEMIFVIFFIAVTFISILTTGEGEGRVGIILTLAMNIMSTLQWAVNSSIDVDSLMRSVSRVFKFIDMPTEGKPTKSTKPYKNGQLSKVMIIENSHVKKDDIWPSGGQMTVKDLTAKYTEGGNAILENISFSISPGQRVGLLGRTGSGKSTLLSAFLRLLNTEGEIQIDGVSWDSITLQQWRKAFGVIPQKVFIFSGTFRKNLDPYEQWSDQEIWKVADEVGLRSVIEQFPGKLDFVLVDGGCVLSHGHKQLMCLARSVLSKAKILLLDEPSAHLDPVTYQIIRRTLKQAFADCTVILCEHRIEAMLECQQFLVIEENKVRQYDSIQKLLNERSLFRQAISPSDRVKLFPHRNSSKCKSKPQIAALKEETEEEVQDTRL

Row | Compound | EC50 [1] [nM] | Emax [2] [%] | EC50 [3] [nM] | Emax [4] [%] | also measured
1 | COc1ccc(CCNC(=O)[C@@H]2CC(=O)N(C)[C@@H](CC(C)C)C(=O)N3CCCC[C@@H]3C(=O)N[C@H](Cc3ccccc3)COc3cnc4ccccc4c3C(=O)N2)cc1 [Example 84, (9S,13S,19aR,22R)-22-benzyl-13-isobutyl-N-(4-methoxyphenethyl)-12-methyl-7,11,14,20-tetraoxo-7,8,9,10,11,12,13,14,17,18,19,19a,20,21,22,23-hexadecahydro-16H-pyrido[2′,1′:6,7][1]oxa[4,7,10,14]tetraazacycloheptadecino[17,16-c]quinoline-9-carboxamide] | 274 | 299 | – | – | –
2 | COc1cccc(CCNC(=O)[C@@H]2CC(=O)N(C)[C@@H](CC(C)C)C(=O)N(C)C3(CC3)C(=O)N[C@H](Cc3ccccc3)COc3ccc4cc(C)oc4c3C(=O)N2)c1 [Example 551, (8R,14S,18S)-8-benzyl-14-isobutyl-N-(3-methoxyphenethyl)-2,12,15-trimethyl-10,13,16,20-tetraoxo-7,8,9,10,13,14,15,16,17,18,19,20-dodecahydro-12H-spiro[benzofuro[7,6-p][1]oxa[4,7,10,14]tetraazacycloheptadecine-11,1′-cyclopropane]-18-carboxamide] | – | – | 222 | 317 | –
3 | COc1nc(C)cc2c1C(=O)N[C@H](C(=O)NCCn1nnc(C3CC3)n1)CC(=O)N(C)[C@@H](CC(C)C)C(=O)N(C)[C@H](Cc1nc(C(F)(F)F)no1)C(=O)N[C@H](Cc1ccccc1)CO2 [Example 902, (3R,6R,9S,13S)-3-benzyl-N-(2-(5-cyclopropyl-2H-tetrazol-2-yl)ethyl)-9-isobutyl-16-methoxy-7,10,18-trimethyl-5,8,11,15-tetraoxo-6-((3-(trifluoromethyl)-1,2,4-oxadiazol-5-yl)methyl)-2,3,4,5,6,7,8,9,10,11,12,13,14,15-tetradecahydropyrido[3,4-p][1]oxa[4,7,10,14]tetraazacycloheptadecine-13-carboxamide] | – | – | – | – | EC50 [5]: 55 nM; Emax [6]: 453%
4 | COc1nccc2c1C(=O)N[C@H](C(=O)NCCc1cccc(C)c1)CC(=O)N(C)[C@@H](CC(C)C)C(=O)N1CCCC[C@@H]1C(=O)N[C@H](Cc1ccccc1)CO2 [Example 186, (7S,11S,17aR,20R)-20-benzyl-11-isobutyl-4-methoxy-10-methyl-N-(3-methylphenethyl)-5,9,12,18-tetraoxo-5,6,7,8,9,10,11,12,15,16,17,17a,18,19,20,21-hexadecahydro-14H-dipyrido[2,1-f:3′,4′-p][1]oxa[4,7,10,14]tetraazacycloheptadecine-7-carboxamide] | 644 | 209 | – | – | –
5 | CN1C(=O)C[C@@H](C(=O)NCCc2ccc3c(c2)OCO3)NC(=O)c2c(ccc3ccccc23)OC[C@@H](Cc2ccccc2)NC(=O)CN(CCC2CCCCC2)C(=O)[C@@H]1CC1CCCC1 (racemic) [Example 290, (3RS,7S,13R)-N-(2-(benzo[d][1,3]dioxol-5-yl)ethyl)-13-benzyl-9-(2-cyclohexylethyl)-7-(cyclopentylmethyl)-6-methyl-1,5,8,11-tetraoxo-1,2,3,4,5,6,7,8,9,10,11,12,13,14-tetradecahydronaphtho[1,2-p][1]oxa[4,7,10,14]tetraazacycloheptadecine-3-carboxamide] | – | 260 | – | – | –
6 | CC(C)C[C@H]1C(=O)N2CCCC[C@@H]2C(=O)N[C@H](Cc2ccccc2)COc2cnc3c(F)cccc3c2C(=O)N[C@H](C(=O)NCCc2cc(C3CC3)on2)CC(=O)N1C [Example 638, (9S,13S,19aR,22R)-22-benzyl-N-(2-(5-cyclopropylisoxazol-3-yl)ethyl)-3-fluoro-13-isobutyl-12-methyl-7,11,14,20-tetraoxo-7,8,9,10,11,12,13,14,17,18,19,19a,20,21,22,23-hexadecahydro-16H-pyrido[2′,11:6,7][1]oxa[4,7,10,14]tetraazacycloheptadecino[17,16-c]quinoline-9-carboxamide] | – | – | 182 | 297 | –
7 | CC(C)C[C@H]1C(=O)N2CCCC[C@@H]2C(=O)N[C@H](Cc2ccccc2)COc2cnc3ccc(F)cc3c2C(=O)N[C@H](C(=O)NCCc2noc(C3CC3)n2)CC(=O)N1C [Example 637, (9S,13S,19aR,22R)-22-benzyl-N-(2-(5-cyclopropyl-1,2,4-oxadiazol-3-yl)ethyl)-5-fluoro-13-isobutyl-12-methyl-7,11,14,20-tetraoxo-7,8,9,10,11,12,13,14,17,18,19,19a,20,21,22,23-hexadecahydro-16H-pyrido[2′,11:6,7][1]oxa[4,7,10,14]tetraazacycloheptadecino[17,16-c]quinoline-9-carboxamide] | – | – | 106 | 300 | –
8 | CCC(=O)CCCCC[C@@H]1NC(=O)[C@H]2CCCCN2C(=O)[C@H]([C@@H](C)CC)NC(=O)[C@H](Cc2cn(OC)c3ccccc23)NC1=O [Apicidin, reference compound] | – | – | – | – | EC50 (EC50, recombinant U2OS cell line (DiscoveRx) expressing PK-tagged human F508del-CFTR, 16h compound incubation, same conditions as example compounds): > 20000 nM
9 | COc1nccc2c1C(=O)N[C@H](C(=O)NCCc1cc(C3CC3)no1)CC(=O)N(C)[C@@H](CC(C)C)C(=O)N1CCC(F)(F)C[C@@H]1C(=O)N[C@H](Cc1ccccc1)CO2 [Example 663, (7S,11S,17aR,20R)-20-benzyl-N-(2-(3-cyclopropylisoxazol-5-yl)ethyl)-16,16-difluoro-11-isobutyl-4-methoxy-10-methyl-5,9,12,18-tetraoxo-5,6,7,8,9,10,11,12,15,16,17,17a,18,19,20,21-hexadecahydro-14H-dipyrido[2,1-f:3′,4′-p][1]oxa[4,7,10,14]tetraazacycloheptadecine-7-carboxamide] | – | – | 801 | 210 | –
10 | COc1noc(CCNC(=O)[C@@H]2CC(=O)N(C)[C@@H](CC(C)C)C(=O)N(C)C3(CC(F)(F)C3)C(=O)N[C@H](Cc3ccccc3)COc3ccc4cnc(C)cc4c3C(=O)N2)n1 [Example 954, (3′S,7′S,13′R)-13′-benzyl-3,3-difluoro-7′-isobutyl-N-(2-(3-methoxy-1,2,4-oxadiazol-5-yl)ethyl)-6′,9′,20′-trimethyl-1′,5′,8′,11′-tetraoxo-2′,3′,4′,5′,6′,7′,8′,9′,11′,12′,13′,14′-dodecahydro-1′H-spiro[cyclobutane-1,10′-[1]oxa[4,7,10,14]tetraazacycloheptadecino[16,17-f]isoquinoline]-3′-carboxamide] | – | – | – | – | EC50 [5]: 382 nM; Emax [6]: 383%
11 | COc1ccc2c(c1)C(=O)N[C@H](C(=O)NCCc1ccc3c(c1)OCO3)CC(=O)N(C)[C@@H](CC(C)C)C(=O)N(C)CC(=O)N[C@H](Cc1ccccc1)CO2 [Example 228, (3R,9S,13S)-N-(2-(benzo[d][1,3]dioxol-5-yl)ethyl)-3-benzyl-9-isobutyl-17-methoxy-7,10-dimethyl-5,8,11,15-tetraoxo-2,3,4,5,6,7,8,9,10,11,12,13,14,15-tetradecahydrobenzo[p][1]oxa[4,7,10,14]tetraazacycloheptadecine-13-carboxamide] | 460 | 190 | – | – | –
12 | CN1C(=O)C[C@@H](C(=O)NCCc2ccc3c(c2)OCO3)NC(=O)c2c(ccc3ccccc23)OC[C@@H](Cc2ccccc2)NC(=O)CN(CC[C@H]2CCCCO2)C(=O)[C@@H]1CC1CC1 [Example 359, (3S,7S,13R)-N-(2-(benzo[d][1,3]dioxol-5-yl)ethyl)-13-benzyl-7-(cyclopropylmethyl)-6-methyl-1,5,8,11-tetraoxo-9-(2-((R)-tetrahydro-2H-pyran-2-yl)ethyl)-1,2,3,4,5,6,7,8,9,10,11,12,13,14-tetradecahydronaphtho[1,2-p][1]oxa[4,7,10,14]tetraazacycloheptadecine-3-carboxamide] | 318 | 144 | – | – | –
